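Assay format: 96-well plates, 48-hour exposure. GI50 is the concentration that inhibits growth by half.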 The source made the active and inactive calls. Rule as the data show it: active = GI50 up to about 1.1 µM and inactive = higher.
Assays:
Assay in all cases: NCI anticancer screen, dose series, 48 h
786-0 = tested on: 786-0
A498 = tested on: A498
A549 = tested on: A549
ACHN = tested on: ACHN
BT-549 = tested on: BT-549
CAKI-1 = tested on: CAKI-1
CCRF-CEM = tested on: CCRF-CEM
COLO 205 = tested on: COLO 205
DU-145 = tested on: DU-145
EKVX = tested on: EKVX
HCC 2998 = tested on: HCC 2998
HCT-116 = tested on: HCT-116
HCT-15 = tested on: HCT-15
HL-60 = tested on: HL-60
HOP-62 = tested on: HOP-62
HOP-92 = tested on: HOP-92
HT-29 = tested on: HT-29
Hs-578T = tested on: Hs-578T
IGROV-1 = tested on: IGROV-1
KM12 = tested on: KM12
LOX IMVI = tested on: LOX IMVI
M14 = tested on: M14
MCF7 = tested on: MCF7
MDA-MB-231 = tested on: MDA-MB-231
MDA-MB-435 = tested on: MDA-MB-435
MDA-N = tested on: MDA-N
MOLT-4 = tested on: MOLT-4
Malme-3M = tested on: Malme-3M
NCI-H23 = tested on: NCI-H23
NCI-H460 = tested on: NCI-H460
NCI-H522 = tested on: NCI-H522
NCI/ADR-RES = tested on: NCI/ADR-RES
OVCAR-3 = tested on: OVCAR-3
OVCAR-4 = tested on: OVCAR-4
OVCAR-5 = tested on: OVCAR-5
OVCAR-8 = tested on: OVCAR-8
PC-3 = tested on: PC-3
RPMI-8226 = tested on: RPMI-8226
RXF 393 = tested on: RXF 393
SF-268 = tested on: SF-268
SF-295 = tested on: SF-295
SF-539 = tested on: SF-539
SK-MEL-28 = tested on: SK-MEL-28
SK-MEL-2 = tested on: SK-MEL-2
SK-MEL-5 = tested on: SK-MEL-5
SK-OV-3 = tested on: SK-OV-3
SN12C = tested on: SN12C
SNB-19 = tested on: SNB-19
SW-620 = tested on: SW-620
T47D = tested on: T47D
TK-10 = tested on: TK-10
U-251 = tested on: U-251
UACC-257 = tested on: UACC-257
UACC-62 = tested on: UACC-62
K562 = tested on: K562
UO-31 = tested on: UO-31

Measured: GI50

C=CC(C)(C)/C=C/c1ccc(O)cc1
inactive: 786-0 27.7 µM | A498 28.3 µM | A549 29.1 µM | ACHN 28.9 µM | BT-549 36.5 µM | CAKI-1 44.7 µM | CCRF-CEM 39.3 µM | COLO 205 35.5 µM | DU-145 40.4 µM | EKVX 45.3 µM | HCC 2998 27.9 µM | HCT-116 31.3 µM | HL-60 37.6 µM | HOP-62 58.2 µM | HOP-92 47 µM | HT-29 38.2 µM | Hs-578T 39.2 µM | IGROV-1 44 µM | KM12 39.3 µM | LOX IMVI 21.9 µM | M14 43.1 µM | MCF7 35.7 µM | MDA-MB-231 36.4 µM | MDA-MB-435 37.9 µM | MDA-N 35 µM | MOLT-4 38.5 µM | Malme-3M 36.8 µM | NCI-H23 31.8 µM | NCI-H460 19.8 µM | NCI-H522 34.4 µM | NCI/ADR-RES 47.9 µM | OVCAR-3 28.8 µM | OVCAR-4 55.5 µM | OVCAR-5 46.6 µM | OVCAR-8 39.7 µM | PC-3 28 µM | RPMI-8226 27.5 µM | RXF 393 24.8 µM | SF-268 33.9 µM | SF-295 27 µM | SF-539 30.1 µM | SK-MEL-28 35.9 µM | SK-MEL-2 23.4 µM | SK-MEL-5 38.5 µM | SK-OV-3 49.7 µM | SN12C 34.5 µM | SNB-19 44.3 µM | SW-620 33.3 µM | T47D 20 µM | TK-10 36.1 µM | U-251 30 µM | UACC-257 24 µM | UACC-62 42.7 µM
39.1 µM: HCT-15

COC(=O)C1=C(C(=O)OC)SC2(S1)C1=C(CCC1)SC(C(=O)OC)=C2C(=O)OC
inactive: A498 9.12 µM | A549 16.5 µM | ACHN 12.3 µM | BT-549 16 µM | CAKI-1 5.87 µM | CCRF-CEM 2.17 µM | COLO 205 13.8 µM | DU-145 4.4 µM | EKVX 14.9 µM | HCC 2998 16.3 µM | HCT-116 1.77 µM | HL-60 6.76 µM | HOP-62 12.7 µM | HOP-92 10.2 µM | HT-29 4.58 µM | Hs-578T 18.5 µM | IGROV-1 12.9 µM | K562 3.09 µM | KM12 15.1 µM | LOX IMVI 3.33 µM | M14 18.3 µM | MCF7 4.33 µM | MDA-MB-231 18.8 µM | MDA-MB-435 12.9 µM | MDA-N 14.5 µM | MOLT-4 2.29 µM | Malme-3M 17.9 µM | NCI-H23 18.6 µM | NCI-H460 5.37 µM | NCI-H522 2.99 µM | NCI/ADR-RES 18.8 µM | OVCAR-3 12.2 µM | OVCAR-4 15.1 µM | OVCAR-5 19.4 µM | OVCAR-8 10.2 µM | PC-3 11.2 µM | RPMI-8226 1.86 µM | RXF 393 4.62 µM | SF-268 15.5 µM | SF-295 15.6 µM | SF-539 1.48 µM | SK-MEL-28 10.7 µM | SK-MEL-2 18.8 µM | SK-MEL-5 14.9 µM | SK-OV-3 16.9 µM | SN12C 10.7 µM | SNB-19 19.6 µM | SW-620 2.43 µM | T47D 9.25 µM | TK-10 14.9 µM | U-251 15.6 µM | UACC-257 15.7 µM | UACC-62 15 µM | UO-31 10.8 µM
6.08 µM: HCT-15

From ChEMBL document CHEMBL1201862, “PubChem BioAssay data set” (2004)
